Where a SMILES comes first, the peptide text is derived from it.
Experiments:
α-syn [1] = target: T1, α-syn (Homo sapiens, UniProt P37840); assay: SDS-PAGE of soluble α-syn left in supernatant after fibrillation; type: biochemical; conditions: for Amount of soluble α-syn monomer left in the supernatant, in words: SDS-PAGE after centrifugation of fibrillated samples; for Soluble α-syn left in supernatant (SDS-PAGE gel): after end of incubation, centrifuged 13,000 rpm 15 min, versus α-syn alone
T1 construct: made in house; host or cells: Escherichia coli BL21 (DE3), plasmid pET11-D
Method: Overall, there was a reasonable but not perfect correspondence between SDS-PAGE and ThT data.
To determine the amount of soluble α-syn, fibrillated samples were centrifuged (13,000 rpm, 15 min) and the supernatants were loaded on Bis–Tris 15% acrylamide gel with prestained protein ladder (Thermo Scientific) and run in a Bis–Tris running buffer at 150 V for 70 min, stained for 20 min in Coomassie brilliant blue (1.2 mM Coomassie brilliant blue, 5% ethanol, and 7% acetic acid), and destained overnight in a destaining solution (5% ethanol and 5% acetic acid). Gel bands were quantified using ImageJ.

α-syn [2] = target: T1, α-syn; assay: ATR–FTIR of fibrillated α-syn–peptide samples; type: biochemical; conditions: for ATR–FTIR (amyloid structures): fibrillated samples after washing, versus α-syn alone; for Amount of amyloid structures (ATR–FTIR), in words: fibrillated α-syn samples in the presence of peptides
From the text: (§1) To analyze the secondary structure of the final aggregates, we recorded far-UV CD and attenuated total reflectance (ATR)–FTIR spectra for fibrillated samples after washing to remove free α-syn and peptides. […] Overall, as the concentration of peptides increases, the intensity of signal at 218 nm decreases (Fig. 4A). We observed that α-syn fibrils formed in the presence of p194, p222, p235, and p249 precipitated rapidly after mixing with these peptides. This likely gives rise to light scattering, which reduces CD signals. To overcome these artifacts, we turned to ATR–FTIR spectroscopy, which is not sensitive to scattering. […] Both far-UV CD and ATR–FTIR spectroscopy confirm extensive β-sheet structure. However, in the presence of peptides, some structural changes were observed as reflected by the decrease in the amyloid cross β-sheet structure at ∼1629 cm^−1 and increases in the random and coil structures (∼1656 and ∼1676 cm^−1, respectively) (Table 2). […] Taking all together, ATR–FTIR data are in reasonable agreement with far-UV CD.
The samples prepared in the CD section were also used to measure FTIR spectra on a Tensor 27 FTIR spectrophotometer (Bruker). About 2 μl α-syn fibrils were dried on the ATR crystal with a gentle stream of nitrogen gas. Spectra were accumulations of 68 scans in the 4000 to 1000 cm^−1 range. Baseline correlation, second derivative, and atmospheric compensation were performed with OPUS 5.5 software (Bruker, Germany). Signals in the amide I region (∼1550–1700 cm^−1) were smoothed and deconvoluted with PeakFit, version 4.12 software (ِSystat Software Inc) using Lorentzian fitting.

SH-SY5Y cells = conditions: αSOs with peptide, MTT
Method: The effect of the peptides on αSOs toxicity in SH-SY5Y cells using 3-(4, 5-dimethylthiazol-2-yl)-2,5-diphenyltetrazolium bromide (MTT) cell viability assay was also tested to complement our calcein data.
We used the MTT assay to measure cell viability after 24 h treatment with αSOs in the presence of peptides. SH-SY5Y cells were seeded in 96-well plates at a density of 5 × 10^4 cell/ml in Dulbecco's modified Eagle's medium supplemented with 10% FBS, 100 unit/ml penicillin, and […]. The cells were incubated in a humidified atmosphere incubator with 5% CO2 and 95% humidity at 37 °C for 24 h. The culture medium was then replaced with fresh medium containing 10 μM αSOs with peptides and incubated for another 24 h. Then the cell medium was replaced with a fresh medium containing 20% MTT (5 mg/ml), and the cells were incubated for an additional 4 h at 37 °C. Then 100 μl of dimethyl sulfoxide was added to dissolve formazan crystals by incubating for 30 min on a shaker at RT. Consequently, absorbance was measured by using a plate reader at 570 nm.

α-syn [3] = target: T1, α-syn; assay: Far-UV CD of fibrillated α-syn–peptide samples; type: biochemical; conditions: fibrillated samples after washing, signal at 218 nm; versus α-syn alone
From the text: as §1
To remove free α-syn and peptides, fibrillated samples were centrifuged (13,000 rpm, 15 min). This leaves monomeric α-syn plus unbound and free peptides in the supernatant. The supernatant was discarded, and the pellet was washed two times in the same volume of PBS buffer, pH 7.4, to ensure complete removal of monomeric α-syn and free peptides. Far-UV CD spectra were recorded at 25 °C on a Chirascan CD Spectrophotometer (Applied Photophysics) using a 0.1 mm quartz cuvette in the wavelength range of 200 to 260 nm with 1 nm bandwidth and three accumulations. The buffer spectrum was subtracted, and the results were expressed as mean residue ellipticity [θ] (deg cm^2 dmol^−1).

[4] = ThT monitoring of peptides alone for self-fibrillation; type: physicochemical; conditions: peptide alone (controls 1 mg/mL), 37 °C with shaking
Method: To test the effects of these selected nine peptides on the aggregation of α-syn, we performed a thioflavin T (ThT) fluorescence assay in the presence of 1 mg/ml α-syn and 0 to 0.5 mg/ml peptide for 48 h (raw data in Fig. S3). Furthermore, the peptides alone were monitored for self-fibrillation. […] High concentrations of p222, p194, and p249 led to a decline in ThT fluorescence after reaching a plateau, possibly because of the formation of insoluble amorphous species. We also carried out seeding experiments by adding 5% sonicated preaggregated α-syn fibrils to the ThT assay.
About 150 μl of 70 μM (1 mg/ml) α-syn, 40 μM ThT, and varying amounts of peptides (0, 0.06, 0.125, 0. 25, 0.375, and 0.5 mg/ml) were transferred in triplicates to a black COSTAR 96-well clear bottom plate (Nunc, Thermo Fisher Scientific), and including a 3 mm diameter glass bead (Glaswarenfabrik Karl Hecht GmbH & Co KG) per well to increase reproducibility ([100]). The plate was sealed with Crystal Clear sealing tape (Hampton Research) and incubated at 37 °C in a CLARIOstar Plus (BMG LABTECH) fluorescence plate reader. Fibrillation was carried out for ∼48 h with 300 rpm double orbital shaking between the readings for 372 s (excitation/emission: 448∕485 nm). […]
[picture] […] The effect of the 9 peptides on α-syn fibrillation monitored by ThT fluorescence. […]

Molecule | Amount of soluble α-syn monomer left in the supernatant, in words (α-syn [1]) | Soluble α-syn left in supernatant (SDS-PAGE gel) (α-syn [1]) | ATR–FTIR (amyloid structures) (α-syn [2]) | Amount of amyloid structures (ATR–FTIR), in words (α-syn [2]) | Effect on cell survival in the presence of toxic αSOs, in words (SH-SY5Y cells) | Far-UV CD (β-sheet structures) (α-syn [3]) | Self-fibrillation of the peptide alone [4]
CC[C@H](C)[C@H](NC(=O)[C@H](Cc1ccccc1)NC(=O)[C@H](Cc1c[nH]c2ccccc12)NC(=O)[C@H](CCCNC(=N)N)NC(=O)[C@H](CC(N)=O)NC(=O)[C@@H](NC(=O)[C@H](CCC(N)=O)NC(=O)[C@H](CCCCN)NC(=O)[C@@H](N)CCSC)[C@@H](C)CC)C(=O)N[C@@H](CCCNC(=N)N)C(=O)N[C@@H](Cc1c[nH]c2ccccc12)C(=O)N[C@@H](CCC(N)=O)C(=O)N[C@@H](CCCCN)C(=O)N[C@@H](CCCCN)C(=O)N[C@@H](CCCNC(=N)N)C(=O)N[C@@H](CCCCN)C(=O)O [p249] (H-MKQINRWFIRWQKKRK-OH; N-terminus and C-terminus assumed) | decrease solubility | ↓↓ | ↓↓↓ amyl | decreased | did not show positive effects | ↓↓↓β | –
RQIKIWFQNRRFKWKK [p222, penetratin with modulated hydrophobicity] | decrease solubility | ↓↓ | ↓↓ amyl | decreased | – | ↓↓↓β | slight self-fibrillation tendencies
CC(C)C[C@H](NC(=O)[C@H](Cc1c[nH]cn1)NC(=O)[C@H](CO)NC(=O)[C@H](CO)NC(=O)[C@H](C)NC(=O)[C@@H](N)CO)C(=O)N[C@@H](Cc1c[nH]cn1)C(=O)N[C@@H](Cc1c[nH]cn1)C(=O)NCC(=O)N[C@@H](Cc1c[nH]cn1)C(=O)N[C@@H](CO)C(=O)NCC(=O)NCC(=O)O [p168] (H-SASSHLHHGHSGG-OH) | decrease solubility | – | – | did not show significant changes in FTIR spectra | – | ↓↓β | –
CC[C@H](C)[C@H](NC(=O)[C@H](Cc1c[nH]c2ccccc12)NC(=O)[C@H](CCCNC(=N)N)NC(=O)[C@H](Cc1c[nH]c2ccccc12)NC(=O)[C@H](CCCCN)NC(=O)[C@@H](NC(=O)[C@H](CCCCN)NC(=O)[C@H](CCC(N)=O)NC(=O)[C@@H](N)CC(N)=O)[C@@H](C)CC)C(=O)N[C@@H](CCC(N)=O)C(=O)N[C@@H](CCCNC(=N)N)C(=O)N[C@@H](Cc1ccccc1)C(=O)N[C@@H](CCCNC(=N)N)C(=O)N[C@@H](CCCCN)C(=O)N[C@@H](CCCCN)C(=O)N[C@@H](CCSC)C(=O)O [p235] (H-NQKIKWRWIQRFRKKM-OH; N-terminus and C-terminus assumed) | – | – | ↓↓↓ amyl | decreased | did not show positive effects | ↓↓↓β | –

— publication PMC9791135, “A penetratin-derived peptide reduces the membrane permeabilization and cell toxicity of α-synuclein oligomers” (The Journal of Biological Chemistry, 2022)
